Experiments:
[1] = target: T1, Type-1 angiotensin II receptor (Homo sapiens, UniProt P30556)
T1 sequence (P30556 whole entry): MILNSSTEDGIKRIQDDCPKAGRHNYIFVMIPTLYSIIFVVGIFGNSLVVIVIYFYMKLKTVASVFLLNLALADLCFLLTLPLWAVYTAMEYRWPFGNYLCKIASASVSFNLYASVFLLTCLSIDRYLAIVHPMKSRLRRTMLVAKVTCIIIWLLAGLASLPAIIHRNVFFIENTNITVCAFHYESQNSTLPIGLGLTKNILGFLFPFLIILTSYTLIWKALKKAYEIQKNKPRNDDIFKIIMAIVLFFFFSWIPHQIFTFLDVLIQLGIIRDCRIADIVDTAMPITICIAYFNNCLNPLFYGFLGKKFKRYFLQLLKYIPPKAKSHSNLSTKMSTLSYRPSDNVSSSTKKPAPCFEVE

D(1A) dopamine receptor = D(1A) dopamine receptor (Homo sapiens, UniProt P21728)
Sequence of D(1A) dopamine receptor (P21728 whole entry): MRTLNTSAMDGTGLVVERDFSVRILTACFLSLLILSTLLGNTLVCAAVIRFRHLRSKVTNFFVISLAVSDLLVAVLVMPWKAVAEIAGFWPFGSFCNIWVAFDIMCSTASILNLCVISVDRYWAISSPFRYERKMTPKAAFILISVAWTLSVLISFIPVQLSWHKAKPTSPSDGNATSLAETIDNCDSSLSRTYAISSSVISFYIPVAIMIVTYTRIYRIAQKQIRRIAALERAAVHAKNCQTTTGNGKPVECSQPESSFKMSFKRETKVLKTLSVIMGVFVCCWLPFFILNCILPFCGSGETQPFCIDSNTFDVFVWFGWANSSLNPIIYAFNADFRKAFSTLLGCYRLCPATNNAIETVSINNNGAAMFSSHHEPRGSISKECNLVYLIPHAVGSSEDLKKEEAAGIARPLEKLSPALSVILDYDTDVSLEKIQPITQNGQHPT
Also: assay procedure not described here.

Row | AC50 (D(1A) dopamine receptor) | SMILES | AC50 [1]
1 | – | O=c1c(O)c(-c2ccc(O)c(O)c2)oc2cc(O)cc(O)c12 [QUERCETIN] | > 100 µM
2 | 12.3 µM | CCN(CC)CCCC(C)Nc1c2ccc(Cl)cc2nc2ccc(OC)cc12 (configuration not stated) [QUINACRINE] | –

Reference: ChEMBL document CHEMBL5291721, “A preclinical secondary pharmacology resource illuminates target-adverse drug reaction associations of marketed drugs” (Nat Commun, 2023)
